Measurements published in patent US9308284B2, “Formulations of fluorinated stilbene suitable for PET imaging” (PIRAMAL IMAGING SA, priority 2011, dated 2016).

How the values were obtained:
[1] = Stability of Formulation 1 comprising HCl salt of Compound 1 for 12 hours at room temperature; format: physicochemical
Experimental: The term “concentration interval of compound 2” as used herein is corrected for the decay of fluorine-18.
Formulation 1 was prepared containing 3 μg/mL of Compound 1 (according to 3.3 μg/mL HCl salt of compound 1). The assay was analysed after preparation and after 12 hours storage according to the short shelf life of PET imaging tracer, typically expected between 6 and 10 hours. Eight individual batches were prepared and analysed for assay.
Table 1 indicates the results of stability testing after 12 hours of n=8 individually manufactured batches.
Minisart HY 0.2 μm is a sterile filter with PTFE hydrophobic membrane.

[2] = Hydrophobic filters and adsorption: Compound 1 concentration before and after sterile filtration of 10 mL Formulation 1; format: physicochemical; conditions: for Filtrate (%) / Adsorption: n=6
Experimental: Formulation 1 comprising compound 1 was prepared as indicated above and filtered using selected sterile filters. Adsorption of compound 1 was determined by measuring the concentration of Compound 1 before and after filtration of 10 mL of Formulation 1 and subsequent calculation of the adsorption. Table 2 indicates the results of adsorption experiments using different filters.

[3] = Formulation 1, Pall HP2002 0.2 μm, Versapor R hydrophobic

## CNc1ccc(/C=C/c2ccc(OCCOCCOCCF)cc2)cc1 [Compound 1]
[1]; Formulation 1, 3 μg/mL Compound 1 (3.3 μg/mL HCl salt), 12 h storage at RT, n=8 batches
  Visual Inspection: clear
[1]; Formulation 1, 12 h at RT, n=8, Minisart HY 0.2 μm
  ΔFiltration in %: 1.9%
[1]; Formulation 1, 12 h at RT, n=8, PTFE sterile filter, relative to concentration after preparation
  Content of Compound 1 in % after 12 h, after filtration (Minisart HY 0.2 μm): 97.0%
[1]; Formulation 1, 12 h at RT, n=8, relative to concentration after preparation (2.97 to 3.14 μg/mL)
  Content of Compound 1 in % after 12 h, prior filtration: 98.9%
[1]; Formulation 1, 12 hours, RT
  Chemical stability in the formulation: chemically stable
[2]; Formulation 1, Millex GV 0.22 μm (Millipore, SLGV033RS), PVDF
  Filtrate (%): 94.0 ± 0.7%
[2]; Formulation 1, Millex GV 0.22 μm (SLGV033RS), PVDF
  Adsorption: 6.0%
[2]; Formulation 1, Minisart HY 0.2 μm (16596-HYK), PTFE
  Adsorption: 1.2%
[2]; Formulation 1, Minisart HY 0.2 μm (Sartorius Stedim, 16596-HYK), PTFE
  Filtrate (%): 98.8 ± 0.6%
[2]; Formulation 1, Minisart High Flow 0.2 μm (16532), polyethersulfone
  Adsorption: 36.1%
[2]; Formulation 1, Minisart High Flow 0.2 μm (Sartorius Stedim, 16532), polyethersulfone
  Filtrate (%): 63.9 ± 1.8%
[2]; Formulation 1, Minisart SRP25 0.2 μm (17575), PTFE
  Adsorption: 0.6%
[2]; Formulation 1, Minisart SRP25 0.2 μm (Sartorius Stedim, 17575), PTFE
  Filtrate (%): 99.4 ± 0.3%
[2]; [3]
  Adsorption: 14.2%
  Filtrate (%): 85.8 ± 0.3%
[2]; filter units containing PTFE and PVDF
  Amount of compound 1 adsorbed onto the filter material: low amount
